Experimental findings from US10716769B2 (GUANGZHOU JTREAT BIOSCI. LTD., priority 2015, dated 2020) are described below.

Values after ≈ are worked out from the molar mass of the structure shown.

The test system of one series is MCF7. The series is described as follows: MTT in vitro tumor cell inhibition. Conditions: 3 days. In kind it is cell-based. The source says: (§1) An effective amount of the above compounds and/or the compositions containing the same used as an active ingredient have an effect on inhibiting the tumor cells. The present invention detects the inhibitory effect of the hydroxy-substituted benzophenone compounds on the proliferation of the in vitro cultured human tumor cells by the methylthiazolyl tetrazolium method.
(§2) The method is used to detect cell viability. […] Particles can be dissolved by dimethyl sulfoxide (DMSO) isopropyl alcohol or 10% acidified SDS (sodium dodecyl sulfate), and a microplate reader is used to measure the OD value at A570 wavelength, which indirectly reflects the number of live cells. The method is used for detection of the cytokines bioactivity, as well as anti-tumor drugs and tumor radiosensitivity and cytotoxicity test, and has the characteristics of being simple, fast, economical, sensitive and accurate and having good reproducibility and no need to use radionuclides. This method has been widely used in screening preclinical anticancer drugs and detecting the drug sensitivity of fresh tumor cells. The method is as below:
(§3) (1) The tumor cell suspension prepared by 0.25% of trypsin digestion and adjusted to a cell concentration of 10^5/ml with RPMI1640 containing 10% fetal calf serum is added to a 96-well plate with 100 μl for each well, cultured 24 hours, and then different dosages of drugs are added with 100 μl/well, for which, the negative control groups, positive control groups and withering wells are set, and 4 parallel wells are set for each group.
(§4) (2) They are continually cultured in incubator containing 5% of CO2 at 37° C. for 24 to 48 hours. MTT solution (5 g/L) is added to each well before the termination of the experiment. The OD value at A570 nm is detected by microplate reader. The OD value at A570 of the negative group without the addition of drugs is taken as a control. The cell survival rate and cell inhibition rate of drugs are calculated according to the following formula: Cell survival rate=(OD value of test group/OD value of control group)×100% Cell inhibition rate (%)=(OD value of the control group−OD value of the test group/(OD value of the control group−OD value of the blank group)
(§5) The tumor cell lines are cultured in RPMI-1640 medium containing 15% of the newborn bovine serum in a conventional manner, placed in the humidification incubator containing 5% of CO2 for being cultured at 37° C., and are observed for growth by an inverted microscope. A subculture is conducted every about 3-5 days, the cells in logarithmic growth phase are adopted to be digested with 0.25% of trypsin, and the serum-free RPMI-1640 medium is used for culturing the cell suspension; the blood counting plate makes counting, the trypan blue exclusion tests the cell activity, and the cell viability>95% is used for formal tests.
Liquid preparation: the compounds are labeled with the codes respectively, DMSO is used to dissolve each compound, the bacterial filter is used to remove bacteria, and each compound is prepared into 10^−4 g/ml, 10^−5 g/ml, 10^−6 g/ml and preserved at 4° C. for use.
MTT method: a bottle of 4-5 days old cells in the exponential growth phase are adopted to be cultured, and added with an appropriate amount of Trypsin-EDTA solution, so as to enable the adherent cells to fall off, and are prepared with 10 ml of RPMI-1640 medium containing 15% newborn bovine serum into suspensions; after stained with trypan blue, the cell number is counted on the blood counting plate to ensure that the live cells is more than 97%; the cell suspensions are diluted by the complete medium so that each […] of solution contains 5000-400000 cells; the 96-well plate is used with 200 μl of cell suspensions added into each. The 96-well plate is placed at 37° C. in 5% of CO2 containing incubator for 24 hours; the test compounds are diluted at 3 dilutions with 5 wells in parallel for each concentration; the serum-free RPMI1640 is used as the control group. […]

The test system of series [1] is human umbilical vein endothelial cell line (ECV304). The series is described as follows: MTT in vitro cell inhibition. The class given is cell-based. To be noted: 3 days.
Description: as §1, §2, §3, §4
1. Tumor cell lines: human glioma cell line (U251), human colon cancer cell line (LOVO), human hepatoma cell line (HepG2), human lung cancer cell line (PC84045), human endometrial carcinoma cell line (JEC), human renal carcinoma (GRC), human gastric cancer cell line (MCG804), human cervical cancer cell line (HeLa), human hepatocellular carcinoma cell line (BEL-7402) and human umbilical vein endothelial cell line (ECV304) purchased from Animal Experimental Center of Zhongshan Medical College, and preserved by the present laboratory.
as §5
Liquid preparation: the compounds are labeled with the codes respectively, DMSO is used to dissolve each compound, the bacterial filter is used to remove bacteria, and each compound is prepared into 10^−4 g/ml, 10^−5 g/ml, 10^−6 g/ml and preserved at 4° C. for use. […]

Another series concerns Vero cells. The series is described as follows: Half toxic concentration in the anti-herpes screening. In kind it is cell-based, African green monkey. As for the experimental part: Vero cells (kidney cells of African green monkey) are used as viral hosts to test the inhibition degree of the samples to cytopathic effects of the Vero cell caused by herpes virus type I and type II. 2. Sample treatment: the sample is dissolved in DMSO at an appropriate concentration before use, and diluted with the culture medium 3 times at a total of 8 dilutions for test. 4.

As to `O=C(c1cc(O)c(O)cc1O)c1ccc(O)c(O)c1O`, the Inhibitory rate % with MCF7 (MCF7, 10^−4 g/ml) was found to be 73.19%; in the series on MCF7 (MCF7, 10^−5 g/ml), 35.48%; in series [1] (ECV304, 10^−4 g/ml), 72.41%; in series [1] (ECV304, 10^−5 g/ml) it was 53.62%; in series [1] (ECV304, 10^−6 g/ml), 30.75%. In addition, the “Inhibitory rate, sensitivity class” value in the series with MCF7 (MCF7, 10^−6 g/ml) is given as “insensitive (<30% means insensitive)”. For the same molecule, the “TC50 half toxic concentration” value with Vero cells was determined as 86.23 mg/L (≈ 310 µM).
With `O=C(c1ccc(O)c(O)c1O)c1ccc(O)c(O)c1O` [2,3,4,2′,3′,4′-hexahydroxybenzophenone], the Inhibitory rate % came to 76.37% in the series on MCF7 (MCF7, 10^−4 g/ml); 43.52% in the series with MCF7 (MCF7, 10^−5 g/ml); 79.37% in series [1] (ECV304, 10^−4 g/ml). In addition, the “Inhibitory rate, sensitivity class” value is “insensitive (<30% means insensitive)” in the series with MCF7 (MCF7, 10^−6 g/ml); “insensitive (<30% means insensitive)” in series [1] (ECV304, 10^−5 g/ml); “insensitive (<30% means insensitive)” in series [1] (ECV304, 10^−6 g/ml). Further, in the series with Vero cells, the “TC50 half toxic concentration” value came out at 12.35 mg/L (≈ 44.4 µM).
Consider `O=C(c1ccccc1)c1ccc(O)c(O)c1O` [2,3,4-trihydroxybenzophenone], for which the Inhibitory rate % in the series on MCF7 (MCF7, 10^−4 g/ml) is reported as 78.59%; with MCF7 (MCF7, 10^−5 g/ml), 38.60%; in series [1] (ECV304, 10^−4 g/ml), 89.63%; in series [1] (ECV304, 10^−5 g/ml) it was 45.81%. In addition, the “Inhibitory rate, sensitivity class” value is given as “insensitive (<30% means insensitive)” in the series with MCF7 (MCF7, 10^−6 g/ml) and “insensitive (<30% means insensitive)” in series [1] (ECV304, 10^−6 g/ml). The “TC50 half toxic concentration” value in the series on Vero cells is 53.42 mg/L (≈ 232 µM).
`O=C(c1ccc(O)cc1O)c1ccc(O)cc1O` [2,4,2′,4′-tetrahydroxybenzophenone]: the Inhibitory rate % was 45.73% in the series on MCF7 (MCF7, 10^−4 g/ml) and 42.13% in series [1] (ECV304, 10^−4 g/ml). Also, the “Inhibitory rate, sensitivity class” value is listed as “insensitive (<30% means insensitive)” in the series on MCF7 (MCF7, 10^−5 g/ml); “insensitive (<30% means insensitive)” with MCF7 (MCF7, 10^−6 g/ml); “insensitive (<30% means insensitive)” in series [1] (ECV304, 10^−5 g/ml); “insensitive (<30% means insensitive)” in series [1] (ECV304, 10^−6 g/ml). Besides, the “TC50 half toxic concentration” value in the series with Vero cells was found to be 111.11 mg/L (≈ 451 µM).
